Experimental data from patent US20180037568A1, “MODULATORS OF METHYL MODIFYING ENZYMES, COMPOSITIONS AND USES THEREOF” (Constellation Pharmaceuticals, Inc., priority 2015, published 2018).
Where two headings read alike, the source gives them in different places.

Experiments:
[1] = target: T1, PRC2 containing wt EZH2 (Homo sapiens, UniProt Q15910); assay: EZH2 pep BSA Brij 4.0 LowE (IC50): 3H-SAM incorporation into biotinylated H3 peptide; type: biochemical
T1 construct: made in house
Procedure: EZH2 Pep BSA Brij 4.0 LowE (IC50):
Compound potencies were assessed through incorporation of ^3H-SAM into a biotinylated H3 peptide. Specifically, PRC2 containing wt EZH2 (20 pM), (pentameric complexes prepared in-house) was pre-incubated with ^3H-SAM (0.9 μM), 2 μM H3K27me3 activating peptide (H2N-RKQLATKAAR(Kme3)SAPATGGVKKP-amide) and compounds (as 10 point duplicate dose response titrations in DMSO, final assay 0.8% DMSO (v/v)) for 120 min in 50 mM Tris (pH 8.5), 1 mM DTT, 0.07 mM Brij-35, 0.1% BSA, and 0.8% DMSO in a total volume of 12.5 μl. Reaction was initiated with biotinylated H3 substrate peptide (H2N-RKQLATKAAR(Kme1)SAPATGGVKKP-NTPEGBiot) as a 2 μM stock in 12.5 μl of buffer and allowed to react at room temperature for 5 h. Quenching was accomplished by addition of 20 μl of STOP solution (50 mM Tris (pH 8.5), 200 mM EDTA, 2 mM SAH). 35 μl of the quenched solution was transferred to Streptavidin Flashplates, incubated overnight, washed, and read in a TopCount Reader (Perkin Elmer). IC50s were calculated relative to fully active and no enzyme control wells using non-linear least square four parameter fits.

[2] = test system: H3K27me3 mark; assay: H3K27me3 Alpha Hela Assay (AlphaLISA); type: cell-based; conditions: Homo sapiens, HeLa, 72 h, Hela cells, read-out: EZH2 Cell H3K27me3 Alpha HeLa (EC50 K27me3)
Procedure: EC50 Measurements for Inhibitors in HeLa Cell Assays
H3K27me3 Alpha Hela Assay (AlphaLISA). Ten different doses of each test compound (in a series of 3-fold dilutions) were plated in duplicate 384-well tissue culture treated plates (Catalog #781080; Greiner Bio One; Monroe, N.C.). Hela cells grown in culture were trypsinized and counted using a Countess® cell counter (Catalog # C10281; Life Technologies, Grand Island, N.Y.). Cell were diluted to 67,000 cells per mL in 10% DMEM (Catalog #10569-010 Life Technologies, Grand Island, N.Y.) and 15 μL (1,000 cells) were plated into each well using the Biotek MicroFlo™ Select Dispenser (BioTek Instruments, Inc. Vermont, USA),) of the 384-well plate. Plates were incubated at 37° C./5% CO2 for 72 hrs. One of the duplicate plates was processed for HeLa assay and the other for viability.
To the plate processed for AlphaLISA was added 5 μL per well Cell-Histone Lysis buffer (1×) (Catalog # AL009F1 Perkin Elmer; Waltham, Mass.) and the plate was incubated at RT for 30 minutes on a plate shaker with low speed (Model#4625-Q Thermo Scientific; Waltham, Mass.). Then, 10 μL per well Histone Extraction buffer (catalog # AL009F2; Perkin Elmer; Waltham, Mass.) was added and the plate further incubated at RT for 20 min on plate shaker with low speed. To each well was then added 10 μL per well of a 5× mix of anti-K27me3 acceptor beads plus Biotinylated anti-Histone H3 (C-ter) Antibody (diluted to 3 nM final) (Catalog #AL118 Perkin Elmer; Waltham, Mass.). Dilution of the acceptor beads and then anti-Histone H3 was with 1× Histone Detection buffer (Catalog # AL009F3 Perkin Elmer; Waltham, Mass.) which was produced diluted from the 10× stock provided. The plate was sealed with an aluminum plate sealer and incubated at 23° C. for 60 min. We then added 10 μL 5× solution of Streptavidin Donor beads (Catalog #6760002 Perkin Elmer; Waltham, Mass.) (20 μg/mL final in 1× Histone Detection Buffer), sealed the plate with Aluminum plate sealer and incubated at 23° C. for 30 min. The plates were then read using an EnVision-Alpha Reader (model #2104 Perkin Elmer; Waltham, Mass.).
Data from both assays was analyzed using Assay Assistant (Constellation Pharmaceuticals In-house product) and Activity Base (IDBS Ltd, Surrey, UK) template. Data files were imported to Assay Assistant and assay conditions were specified. A unique Analysis ID was created and the data files exported to Activity Base. An analysis template was created on Activity Base to measure dose-dependent inhibition of H3K27me3 mark and cell viability respectively. Readout of DMSO wells were used to normalize the data. Resulting curves were fitted using Activity base software Model 205 (IDBS Ltd, Surrey, UK). The data was checked for quality, validated and integrated in excel format using SARview (IDBS Ltd, Surrey, UK).

[3] = EZH2 pep BSA Brij 4.0 LowE (IC50), 20 pM PRC2 wt EZH2, 0.9 μM 3H-SAM, biotinylated H3 peptide substrate, 2 μM H3K27me3 activating peptide
[4] = read-out: EZH2 pep BSA Brij 4.0 LowE (IC50); 20 pM PRC2 wt EZH2, 0.9 μM 3H-SAM, biotinylated H3 peptide substrate, 2 μM H3K27me3 activating peptide
[5] = 20 pM PRC2 wt EZH2, 0.9 μM 3H-SAM, biotinylated H3 peptide substrate, 2 μM H3K27me3 activating peptide; read-out: EZH2 pep BSA Brij 4.0 LowE (IC50)

T1 sequence (Q15910 whole entry): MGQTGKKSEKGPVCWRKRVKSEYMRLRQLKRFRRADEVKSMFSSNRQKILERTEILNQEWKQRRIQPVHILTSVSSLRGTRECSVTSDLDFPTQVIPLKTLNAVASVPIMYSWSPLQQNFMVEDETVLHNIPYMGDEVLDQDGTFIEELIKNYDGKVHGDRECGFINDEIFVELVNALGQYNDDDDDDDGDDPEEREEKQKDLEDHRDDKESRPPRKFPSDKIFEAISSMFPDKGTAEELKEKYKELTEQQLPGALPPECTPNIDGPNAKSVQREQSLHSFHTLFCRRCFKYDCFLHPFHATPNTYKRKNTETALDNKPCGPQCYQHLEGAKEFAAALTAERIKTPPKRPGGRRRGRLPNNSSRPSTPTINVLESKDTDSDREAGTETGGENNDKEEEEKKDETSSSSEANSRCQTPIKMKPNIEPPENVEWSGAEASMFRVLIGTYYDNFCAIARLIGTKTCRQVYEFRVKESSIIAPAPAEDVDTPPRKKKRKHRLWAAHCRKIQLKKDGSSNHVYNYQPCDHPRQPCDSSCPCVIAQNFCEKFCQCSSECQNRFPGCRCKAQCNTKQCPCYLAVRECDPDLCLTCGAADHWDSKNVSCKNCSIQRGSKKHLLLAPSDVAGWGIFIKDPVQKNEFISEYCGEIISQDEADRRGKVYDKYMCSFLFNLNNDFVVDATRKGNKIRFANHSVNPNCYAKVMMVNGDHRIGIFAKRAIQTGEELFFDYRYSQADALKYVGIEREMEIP
T1 sequence (O75530 whole entry partner): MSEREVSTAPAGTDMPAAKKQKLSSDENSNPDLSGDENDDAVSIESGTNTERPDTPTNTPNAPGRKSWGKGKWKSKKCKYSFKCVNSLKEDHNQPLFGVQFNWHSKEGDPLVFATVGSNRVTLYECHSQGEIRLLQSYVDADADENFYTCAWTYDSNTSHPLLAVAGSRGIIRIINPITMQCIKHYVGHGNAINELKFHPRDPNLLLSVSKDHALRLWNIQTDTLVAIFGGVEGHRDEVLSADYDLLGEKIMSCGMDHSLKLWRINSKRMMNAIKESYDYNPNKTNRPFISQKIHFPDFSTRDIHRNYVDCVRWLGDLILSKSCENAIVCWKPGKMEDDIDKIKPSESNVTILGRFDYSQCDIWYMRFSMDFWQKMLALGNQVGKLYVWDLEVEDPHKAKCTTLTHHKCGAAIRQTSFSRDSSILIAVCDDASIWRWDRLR
T1 sequence (Q15022 whole entry partner): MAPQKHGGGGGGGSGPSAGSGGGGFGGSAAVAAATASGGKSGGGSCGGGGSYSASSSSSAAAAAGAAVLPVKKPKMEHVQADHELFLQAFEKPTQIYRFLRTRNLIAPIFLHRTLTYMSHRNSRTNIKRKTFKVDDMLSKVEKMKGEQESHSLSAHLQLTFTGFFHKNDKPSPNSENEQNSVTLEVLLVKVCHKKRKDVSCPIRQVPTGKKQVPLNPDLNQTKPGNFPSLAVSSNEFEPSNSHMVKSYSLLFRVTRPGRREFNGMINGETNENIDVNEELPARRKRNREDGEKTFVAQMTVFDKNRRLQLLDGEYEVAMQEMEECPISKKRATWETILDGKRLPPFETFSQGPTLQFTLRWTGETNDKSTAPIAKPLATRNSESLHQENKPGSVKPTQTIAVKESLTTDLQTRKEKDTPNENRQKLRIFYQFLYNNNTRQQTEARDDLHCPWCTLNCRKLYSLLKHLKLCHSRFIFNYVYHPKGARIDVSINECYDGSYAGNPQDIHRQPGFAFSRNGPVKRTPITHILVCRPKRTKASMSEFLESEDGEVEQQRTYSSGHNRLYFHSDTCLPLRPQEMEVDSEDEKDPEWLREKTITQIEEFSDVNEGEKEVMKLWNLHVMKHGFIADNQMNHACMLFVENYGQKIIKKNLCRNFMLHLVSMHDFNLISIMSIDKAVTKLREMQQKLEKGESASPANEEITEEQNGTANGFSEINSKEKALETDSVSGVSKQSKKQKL
T1 sequence (Q09028 whole entry partner): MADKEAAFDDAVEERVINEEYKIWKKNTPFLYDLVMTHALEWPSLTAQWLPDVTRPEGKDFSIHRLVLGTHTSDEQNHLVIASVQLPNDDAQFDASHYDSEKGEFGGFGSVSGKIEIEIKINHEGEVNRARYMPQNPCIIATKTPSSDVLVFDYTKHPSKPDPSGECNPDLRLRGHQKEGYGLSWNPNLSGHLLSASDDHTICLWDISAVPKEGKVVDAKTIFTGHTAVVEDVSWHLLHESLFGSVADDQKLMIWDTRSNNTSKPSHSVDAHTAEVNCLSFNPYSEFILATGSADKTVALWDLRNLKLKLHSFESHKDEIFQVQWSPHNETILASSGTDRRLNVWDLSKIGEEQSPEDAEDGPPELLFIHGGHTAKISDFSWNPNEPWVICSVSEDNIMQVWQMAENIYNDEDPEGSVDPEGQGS
T1 sequence (Q6ZN18 whole entry partner): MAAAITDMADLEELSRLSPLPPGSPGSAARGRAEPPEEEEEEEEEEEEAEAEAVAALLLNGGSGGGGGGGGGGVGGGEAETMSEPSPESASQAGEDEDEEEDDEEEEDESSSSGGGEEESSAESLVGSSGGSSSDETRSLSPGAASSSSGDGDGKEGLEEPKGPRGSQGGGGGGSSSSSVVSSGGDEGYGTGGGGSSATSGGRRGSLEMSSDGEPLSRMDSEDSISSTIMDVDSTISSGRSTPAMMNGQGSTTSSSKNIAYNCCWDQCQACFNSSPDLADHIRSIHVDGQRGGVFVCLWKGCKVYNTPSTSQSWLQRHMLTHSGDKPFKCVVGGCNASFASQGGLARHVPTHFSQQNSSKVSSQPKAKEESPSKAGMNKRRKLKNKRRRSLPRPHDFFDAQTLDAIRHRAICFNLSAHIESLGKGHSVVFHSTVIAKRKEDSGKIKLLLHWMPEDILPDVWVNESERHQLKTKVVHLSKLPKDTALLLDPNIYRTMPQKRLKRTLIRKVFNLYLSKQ

Compound	IC50 [1, 3] [nM]	IC50 [1, 5] [nM]	further results
CCC1CC(C(C)n2c(C)c(C(=O)NCc3c(C)cc(C)[nH]c3=O)c3ccccc32)CCN1CC(F)F (stereo not shown) [Compound 67]	< 100		
COc1cc(C)[nH]c(=O)c1CNC(=O)c1c(C)n(C(C)C2CCNC(c3ccccc3F)C2)c2ccccc12 (stereo not shown) [Compound 66]			IC50 [1, 4]: < 100 nM; EC50 [2]: 400 to 2000 nM
Cc1cc(C)c(CNC(=O)c2c(C)n(C(C)C3CCNC(C(F)(F)F)C3)c3ccccc23)c(=O)[nH]1 (single isomer, unassigned) [Compound 17, N-((4,6-dimethyl-2-oxo-1,2-dihydropyridin-3-yl)methyl)-2-methyl-1-(1-(2-(trifluoromethyl)piperidin-4-yl)ethyl)-1H-indole-3-carboxamide]	< 100		EC50 [2]: < 400 nM
COc1cc(C)[nH]c(=O)c1CNC(=O)c1c(C)n(C(C)C2CCN(C)C(c3cccc(F)c3)C2)c2ccccc12 (stereo not shown) [Compound 55]		< 100	
COc1cc(C)[nH]c(=O)c1CNC(=O)c1c(C)n(C(C)C2CCN(C(C)=O)C(C)C2)c2ccccc12 (stereo not shown) [Compound 78]		< 100	
COc1cc(C)[nH]c(=O)c1CNC(=O)c1c(C)n(C(C)C2CCN(C)CC2C(F)(F)F)c2ccccc12 (single isomer, unassigned) [Compound 27, N-((4-methoxy-6-methyl-2-oxo-1,2-dihydropyridin-3-yl)methyl)-2-methyl-1-(1-(1-methyl-3-(trifluoromethyl)piperidin-4-yl)ethyl)-1H-indole-3-carboxamide]	100 to 1000		EC50 [2]: > 2000 nM
COc1cc(C)[nH]c(=O)c1CNC(=O)c1c(C)n(C(C)C2CCN(CC(C)(F)F)C(C)C2)c2ccccc12 (stereo not shown) [Compound 64]	< 100		
Cc1cc(C)c(CNC(=O)c2c(C)n(C(C)C3CCN(CC(C)(F)F)C(C)C3)c3ccccc23)c(=O)[nH]1 (stereo not shown) [Compound 48]	100 to 1000		
CCC1CC(C(C)n2c(C)c(C(=O)NCc3c(OC)cc(C)[nH]c3=O)c3ccccc32)CCN1CC(F)F (stereo not shown) [Compound 62]			IC50 [1, 4]: < 100 nM
CCC1CC(C(C)n2c(C)c(C(=O)NCc3c(OC)cc(C)[nH]c3=O)c3ccccc32)CCN1CC(F)F (stereo not shown) [Compound 54]	< 100		
Cc1cc(C)c(CNC(=O)c2c(C)n(C(C)C3CCNC(c4cccc(F)c4)C3)c3ccccc23)c(=O)[nH]1 (stereo not shown) [Compound 53]		< 100	
Cc1cc(C)c(CNC(=O)c2c(C)n(C(C)C3CCN(CC(C)(F)F)C(C)C3)c3ccccc23)c(=O)[nH]1 (stereo not shown) [Compound 58]	< 100		
COc1cc(C)[nH]c(=O)c1CNC(=O)c1c(C)n(C(C)C2CCNC(c3cccc(C(F)(F)F)c3)C2)c2ccccc12 (stereo not shown) [Compound 77]		< 100	
Cc1cc(C)c(CNC(=O)c2c(C)n(C(C)C3CCN(C)C(c4cccc(F)c4)C3)c3ccccc23)c(=O)[nH]1 (stereo not shown) [Compound 56]		< 100	
CCS(=O)(=O)N1CCC(C(C)n2c(C)c(C(=O)NCc3c(OC)cc(C)[nH]c3=O)c3ccccc32)CC1C (stereo not shown) [Compound 93]	100 to 1000		
CCS(=O)(=O)N1CCC(C(C)n2c(C)c(C(=O)NCc3c(OC)cc(C)[nH]c3=O)c3ccccc32)CC1C (stereo not shown) [Compound 94]	100 to 1000		
Cc1cc(C)c(CNC(=O)c2c(C)n(C(C)C3CCN(CC(C)(F)F)C(C)C3)c3ccccc23)c(=O)[nH]1 (stereo not shown) [Compound 49]	100 to 1000		
COc1cc(C)[nH]c(=O)c1CNC(=O)c1c(C)n(C(C)C2CCN(C(C)=O)C(CC(F)(F)F)C2)c2ccccc12 (stereo not shown) [Compound 80]		< 100	
COc1cc(C)[nH]c(=O)c1CNC(=O)c1c(C)n(C(C)C2CCNC(c3cccc(F)c3)C2)c2ccccc12 (stereo not shown) [Compound 65]		< 100	

Compound	IC50 [1, 3] [nM]	IC50 [1, 5] [nM]	further results
COc1cc(C)[nH]c(=O)c1CNC(=O)c1c(C)n(C(C)C2CCNC(c3cccc(C(F)(F)F)c3)C2)c2ccccc12 (stereo not shown) [Compound 76]		< 100	
COC(=O)N1CCC(C(C)n2c(C)c(C(=O)NCc3c(OC)cc(C)[nH]c3=O)c3ccccc32)CC1C (stereo not shown) [Compound 82]		100 to 1000	
CCC1CC(C(C)n2c(C)c(C(=O)NCc3c(OC)cc(C)[nH]c3=O)c3ccccc32)CCN1CC(F)F (stereo not shown) [Compound 59]			IC50 [1, 4]: < 100 nM
CCC1CC(C(C)n2c(C)c(C(=O)NCc3c(OC)cc(C)[nH]c3=O)c3ccccc32)CCN1CC(F)F (stereo not shown) [Compound 60]			IC50 [1, 4]: < 100 nM
COC(=O)N1CCC(C(C)n2c(C)c(C(=O)NCc3c(OC)cc(C)[nH]c3=O)c3ccccc32)CC1C (stereo not shown) [Compound 79]		< 100	
Cc1cc(C)c(CNC(=O)c2c(C)n(C(C)C3CCNC(CC(F)(F)F)C3)c3ccccc23)c(=O)[nH]1 (stereo not shown) [Compound 86]			IC50 [1, 4]: < 100 nM
Cc1cc(C)c(CNC(=O)c2c(C)n(C(C)C3CCN(CC(C)(F)F)C(C)C3)c3ccccc23)c(=O)[nH]1 (stereo not shown) [Compound 74]	< 100		
COc1cc(C)[nH]c(=O)c1CNC(=O)c1c(C)n(C(C)C2CCNC(c3ccccc3F)C2)c2ccccc12 (stereo not shown) [Compound 50]	< 100		
COc1cc(C)[nH]c(=O)c1CNC(=O)c1c(C)n(C(C)C2CCNC(CC(F)(F)F)C2)c2ccccc12 (stereo not shown) [Compound 87]	100 to 1000		
Cc1cc(C)c(CNC(=O)c2c(C)n(C(C)C3CCN(C)C(c4cccc(F)c4)C3)c3ccccc23)c(=O)[nH]1 (stereo not shown) [Compound 61]		< 100	
Cc1cc(C)c(CNC(=O)c2c(C)n(C(C)C3CCNC(CC(F)(F)F)C3)c3ccccc23)c(=O)[nH]1 (stereo not shown) [Compound 83]	< 100		
Cc1cc(C)c(CNC(=O)c2c(C)n(C(C)C3CCNC(c4cccc(F)c4)C3)c3ccccc23)c(=O)[nH]1 (stereo not shown) [Compound 52]		< 100	
Cc1cc(C)c(CNC(=O)c2c(C)n(C(C)C3CCNC(CC(F)(F)F)C3)c3ccccc23)c(=O)[nH]1 (stereo not shown) [Compound 85]			IC50 [1, 4]: < 100 nM
COc1cc(C)[nH]c(=O)c1CNC(=O)c1c(C)n(C(C)C2CCN(C(C)=O)C(CC(F)(F)F)C2)c2ccccc12 (stereo not shown) [Compound 75]		< 100	
COc1cc(C)[nH]c(=O)c1CNC(=O)c1c(C)n(C(C)C2CCN(C(C)=O)C(CC(F)(F)F)C2)c2ccccc12 (stereo not shown) [Compound 81]		< 100	
COc1cc(C)[nH]c(=O)c1CNC(=O)c1c(C)n(C(C)C2CCN(C)C(c3cccc(F)c3)C2)c2ccccc12 (stereo not shown) [Compound 57]		< 100	
CCC1CC(C(C)n2c(C)c(C(=O)NCc3c(OC)cc(C)[nH]c3=O)c3ccccc32)CCN1CC(F)F (stereo not shown) [Compound 63]			IC50 [1, 4]: < 100 nM
COc1cc(C)[nH]c(=O)c1CNC(=O)c1c(C)n(C(C)C2CCNC(c3cccc(F)c3)C2)c2ccccc12 (stereo not shown) [Compound 51]		< 100	
